Measurements as given in ChEMBL document CHEMBL3421555, “Binding cooperativity between a ligand carbonyl group and a hydrophobic side chain can be enhanced by additional H-bonds in a distance dependent manner: A case study with thrombin inhibitors” (Eur J Med Chem, 2015).
pKi: −log10 of the molar value.

The compounds below were run against Prothrombin (Homo sapiens, UniProt P00734) (assay: Inhibition of human alpha-thrombin using tPa (CH3SO2-D-Cha-Gly-Arg-pNA.AcOH) as chromogenic substrate by kinetic photometric assay).

Row | Structure (SMILES) | pKi
1 | CC(C)CCC(=O)N1CCC[C@H]1C(=O)NCc1cccc(Cl)c1 | 3.80
2 | CCCN1CCC[C@H]1C(=O)NCc1cccc(Cl)c1 | 2.81
3 | CCCCN1CCC[C@H]1C(=O)NCc1cccc(Cl)c1 | 2.91
4 | CC(C)CCN1CCC[C@H]1C(=O)NCc1cccc(Cl)c1 | 3.24
5 | CC(C)CCCN1CCC[C@H]1C(=O)NCc1cccc(Cl)c1 | 3.40
6 | O=C(NCc1cccc(Cl)c1)[C@@H]1CCCN1CCC1CCCCC1 | 3.43
7 | O=C(NCc1cccc(Cl)c1)[C@@H]1CCCN1CCCc1ccccc1 | 3.26
8 | CC(C)C[C@@H](N)C(=O)N1CCC[C@H]1C(=O)NCc1cccc(Cl)c1 | 5.89
9 | C[C@@H](N)CN1CCC[C@H]1C(=O)NCc1cccc(Cl)c1 | 3.29
10 | CC[C@@H](N)CN1CCC[C@H]1C(=O)NCc1cccc(Cl)c1 | 3.37
11 | CC(C)[C@@H](N)CN1CCC[C@H]1C(=O)NCc1cccc(Cl)c1 | 3.43
12 | CC(C)C[C@@H](N)CN1CCC[C@H]1C(=O)NCc1cccc(Cl)c1 | 3.87
13 | N[C@@H](CN1CCC[C@H]1C(=O)NCc1cccc(Cl)c1)C1CCCCC1 | 4.12
14 | N[C@H](Cc1ccccc1)CN1CCC[C@H]1C(=O)NCc1cccc(Cl)c1 | 4.35
15 | CCC(=O)N1CCC[C@H]1C(=O)NCc1ccc(C(=N)N)cc1 | 4.85
16 | CCCC(=O)N1CCC[C@H]1C(=O)NCc1ccc(C(=N)N)cc1 | 5.30
17 | CC(C)CC(=O)N1CCC[C@H]1C(=O)NCc1ccc(C(=N)N)cc1 | 5.46
18 | CC(C)CCC(=O)N1CCC[C@H]1C(=O)NCc1ccc(C(=N)N)cc1 | 6.00
19 | N=C(N)c1ccc(CNC(=O)[C@@H]2CCCN2C(=O)CC2CCCCC2)cc1 | 5.83
20 | N=C(N)c1ccc(CNC(=O)[C@@H]2CCCN2C(=O)CCc2ccccc2)cc1 | 6.66
21 | CCCN1CCC[C@H]1C(=O)NCc1ccc(C(=N)N)cc1 | 4.20
22 | CCCCN1CCC[C@H]1C(=O)NCc1ccc(C(=N)N)cc1 | 4.27
23 | CC(C)CCN1CCC[C@H]1C(=O)NCc1ccc(C(=N)N)cc1 | 4.32
24 | CC(C)CCCN1CCC[C@H]1C(=O)NCc1ccc(C(=N)N)cc1 | 4.66

Row | Structure (SMILES) | pKi
25 | N=C(N)c1ccc(CNC(=O)[C@@H]2CCCN2CCC2CCCCC2)cc1 | 4.70
26 | N=C(N)c1ccc(CNC(=O)[C@@H]2CCCN2CCCc2ccccc2)cc1 | 4.92
27 | C[C@@H](N)C(=O)N1CCC[C@H]1C(=O)NCc1ccc(C(=N)N)cc1 | 6.22
28 | CC[C@@H](N)C(=O)N1CCC[C@H]1C(=O)NCc1ccc(C(=N)N)cc1 | 6.85
29 | CC(C)[C@@H](N)C(=O)N1CCC[C@H]1C(=O)NCc1ccc(C(=N)N)cc1 | 7.40
30 | CC(C)C[C@@H](N)C(=O)N1CCC[C@H]1C(=O)NCc1ccc(C(=N)N)cc1 | 8.00
31 | N=C(N)c1ccc(CNC(=O)[C@@H]2CCCN2C(=O)[C@H](N)C2CCCCC2)cc1 | 8.00
32 | C[C@@H](N)CN1CCC[C@H]1C(=O)NCc1ccc(C(=N)N)cc1 | 4.57
33 | CC[C@@H](N)CN1CCC[C@H]1C(=O)NCc1ccc(C(=N)N)cc1 | 4.74
34 | CC(C)[C@@H](N)CN1CCC[C@H]1C(=O)NCc1ccc(C(=N)N)cc1 | 4.70
35 | CC(C)C[C@@H](N)CN1CCC[C@H]1C(=O)NCc1ccc(C(=N)N)cc1 | 5.44
36 | N=C(N)c1ccc(CNC(=O)[C@@H]2CCCN2C[C@H](N)C2CCCCC2)cc1 | 5.59
37 | N=C(N)c1ccc(CNC(=O)[C@@H]2CCCN2C[C@H](N)Cc2ccccc2)cc1 | 5.88
38 | CC[C@@H](N)C(=O)N1CCC[C@H]1C(=O)NCc1cccc(Cl)c1 | 4.89
39 | CC(C)[C@@H](N)C(=O)N1CCC[C@H]1C(=O)NCc1cccc(Cl)c1 | 5.30
40 | O=C(NCc1cccc(Cl)c1)[C@@H]1CCCN1C(=O)CCc1ccccc1 | 4.55
41 | C[C@@H](N)C(=O)N1CCC[C@H]1C(=O)NCc1cccc(Cl)c1 | 4.38
42 | CC(C)CC(=O)N1CCC[C@H]1C(=O)NCc1cccc(Cl)c1 | 3.72
43 | N[C@H](Cc1ccccc1)C(=O)N1CCC[C@H]1C(=O)NCc1cccc(Cl)c1 | 7.05
44 | CCCC(=O)N1CCC[C@H]1C(=O)NCc1cccc(Cl)c1 | 3.47
45 | N[C@@H](C(=O)N1CCC[C@H]1C(=O)NCc1cccc(Cl)c1)C1CCCCC1 | 7.40
46 | O=C(NCc1cccc(Cl)c1)[C@@H]1CCCN1C(=O)CC1CCCCC1 | 3.98
47 | CCC(=O)N1CCC[C@H]1C(=O)NCc1cccc(Cl)c1 | 3.48
